Assay results: PMC5062570 (Nature Communications, 2016)
Entries after “also recorded” stand apart in the source; their conditions may differ.

How the values were obtained:
purified CatD = molecular target: T1, purified CatD (Homo sapiens, UniProt P07339); experiment: PF-7802 labelling of purified CatD (probe-based competition); assay type: binding; settings: 250 nM purified human mature CatD, NaOAc pH 4.5, PF-7802 100 nM
T1 construct: final maturation into a non-covalently associated heavy chain and light chain; purchased Sigma C8696; host or cells: human liver
T1 sequence (P07339 65-162 limits assumed): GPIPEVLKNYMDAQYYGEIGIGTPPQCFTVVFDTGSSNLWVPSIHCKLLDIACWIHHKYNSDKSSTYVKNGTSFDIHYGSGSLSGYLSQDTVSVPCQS
T1 sequence (P07339 169-412 limits assumed): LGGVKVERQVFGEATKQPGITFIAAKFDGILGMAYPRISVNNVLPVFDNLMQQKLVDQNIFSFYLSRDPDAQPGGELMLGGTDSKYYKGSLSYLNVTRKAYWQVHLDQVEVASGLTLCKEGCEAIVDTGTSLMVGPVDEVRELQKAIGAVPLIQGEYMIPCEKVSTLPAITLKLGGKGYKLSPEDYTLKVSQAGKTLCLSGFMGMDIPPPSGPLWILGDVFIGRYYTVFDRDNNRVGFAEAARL
Method: Purified CatD (Sigma C8696, isolated from human liver) or proCatD (R&D systems 1014-AS) was reconstituted and diluted to 250 nM in NaOAc buffer (50 mM, pH 4.5, 0.0001% Tween-20). […] Samples were analysed by in-gel fluorescence scanning and western blot with an α-CatD antibody (R&D Systems AF-1014) as described above for CatD knockdown.

BACE2 = settings: purified aspartyl proteases; not previously disclosed
CatE = molecular target: T2, CatE (Homo sapiens, UniProt P14091); experiment: CatE purified enzyme fluorescence polarization assay; assay type: biochemical
T2 construct: purchased Creative BioMart CTSE-255H
T2 sequence (P14091 54-396): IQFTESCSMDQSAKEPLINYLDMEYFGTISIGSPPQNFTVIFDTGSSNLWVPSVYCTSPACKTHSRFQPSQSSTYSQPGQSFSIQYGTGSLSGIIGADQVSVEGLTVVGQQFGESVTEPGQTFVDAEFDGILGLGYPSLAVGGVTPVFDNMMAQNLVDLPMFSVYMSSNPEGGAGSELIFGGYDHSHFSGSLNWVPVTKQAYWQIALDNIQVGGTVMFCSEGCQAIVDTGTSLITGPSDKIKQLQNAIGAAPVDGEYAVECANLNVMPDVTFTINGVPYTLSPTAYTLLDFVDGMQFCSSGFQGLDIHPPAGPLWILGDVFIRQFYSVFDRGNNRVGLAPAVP
Method: Purified enzyme inhibition of BACE1, BACE2, CatD and CatE was determined using fluorescence polarization (FP) assays. Briefly, purified enzymes were treated with test compounds (1% DMSO, 37 °C) in the presence of synthetic peptide substrates (150 nM) in 30 μl total volume of NaOAc buffer (100 mM, pH 4.5, 0.0001% Tween-20) in a 384-well plate. After incubation, reactions were stopped and substrate captured by the addition of 1.5 μM streptavidin, and FP measured with an EnVision plate reader (PerkinElmer, excitation 485 nm, emission 530 nm). […] BACE2 activity was assessed with 0.5 nM recombinant BACE2 (R&D Systems 4097-AS) and the same synthetic substrate used for BACE1, with a 1 h incubation time. […] CatE activity was assessed with 1.0 nM recombinant CatE (Creative BioMart CTSE-255H) and the same synthetic substrate used for CatD, with a 1.5 h incubation time.

[1] = test system: retinal pigment epithelium (RPE); experiment: Ocular toxicity, retinal histology in wild-type and BACE1 knockout mice; settings: 80 mg kg-1 daily; for WT ocular toxicity incidence (positive or negative animals / total evaluated) / WT ocular toxicity outcome: wild-type mice
Method: All experiments and procedures involving animals were conducted as per the established guidelines and protocols that were reviewed and approved by the Pfizer Institutional Animal Care and Use Committee. […] Animals were housed at an Association for Assessment and Accreditation of Laboratory Animal Care International accredited facility in species-specific housing. Sample number was adequately powered for exploratory toxicology studies based on consistent internal practice. Clinically acceptable animals were selected for exploratory toxicology studies and assigned to groups using a computer-assisted randomization procedure based on body weights. For the fluorescent microscopic evaluation of the eyes, animals from the control group were initially evaluated in an unblinded fashion to provide the investigator an understanding of the baseline amount of autofluorescence typical for vehicle-treated animals in the study. A subsequent blinded evaluation of all animals in the study including controls was then performed to identify individuals that were outside the normal range established by the initial unblinded control group review.
After fixation for a minimum of 2 days, each eye was sectioned in half along the mid-sagittal plane with one half being embedded cut side down in a paraffin wax block and the other half returned to fixative. Paraffin blocks were sectioned at 4–5 μm using a microtome and the resulting sections were placed on glass slides, stained with H&E and coverslipped.

Cc1cc([C@H]2C[C@H]3[C@@H](C)SC(N)=N[C@@]3(c3ccc(F)cc3F)CO2)on1 [PF-9283]
Competition of PF-7802 labelling of purified mature CatD (purified CatD): competed by pretreatment with PF-9283 in a concentration-dependent manner; also recorded: concentration-dependently competed
Fold selectivity for BACE1 over BACE2 (BACE2): 1.9 fold
IC50 (CatE): 24 µM
BACE1(-/-) ocular toxicity incidence (positive or negative animals / total evaluated) ([1]; BACE1(-/-) mice, 14 days): 4/5
BACE1(-/-) ocular toxicity outcome ([1]; BACE1(-/-) mice, 14 days): Pos
Retinal finding by fluorescence microscopy ([1]; BACE1(-/-) mice, 14 days): accumulated autofluorescent granules were observed
BACE1(-/-) ocular toxicity incidence (positive or negative animals / total evaluated) ([1]; BACE1(-/-) mice, 30 days): 6/6
BACE1(-/-) ocular toxicity outcome ([1]; BACE1(-/-) mice, 30 days): Pos
WT ocular toxicity incidence (positive or negative animals / total evaluated) ([1]; 2 days): 5/5
WT ocular toxicity outcome ([1]; 2 days): Neg
WT ocular toxicity incidence (positive or negative animals / total evaluated) ([1]; 4 days): 1/5
WT ocular toxicity outcome ([1]; 4 days): Pos
WT ocular toxicity incidence (positive or negative animals / total evaluated) ([1]; 7 days): 6/6
WT ocular toxicity outcome ([1]; 7 days): Pos
WT ocular toxicity incidence (positive or negative animals / total evaluated) ([1]; 14 days): 5/5
WT ocular toxicity outcome ([1]; 14 days): Pos
WT ocular toxicity incidence (positive or negative animals / total evaluated) ([1]; 30 days): 6/6
WT ocular toxicity outcome ([1]; 30 days): Pos
